According to patent publication EP4741389A1, “KAT6 INHIBITOR” (Shanghai Qilu Pharmaceutical Research and Development …, priority 2023, dated 2025):

Assays:
KAT6A = biological target: T1, KAT6A (Homo sapiens, UniProt Q92794); test: KATs acetyltransferase enzyme activity assay (TR-FRET), KAT6A; format: biochemical; settings: Biotin-H3 (1-21) and AcCOA, 90 minutes at room temperature
T1 construct: purchased Active Motif 81223

ZR-75-1 cells = test: ZR-75-1 cell proliferation assay (CellTiter-Glo); format: cell-based; settings: Homo sapiens, ZR-75-1, 240 h, total culture period of 10 days, read-out: ZR-75-1 Proliferation Inhibition IC50
Summary of the method: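 ZR-75-1 cells were exposed to compound for 10 days in total at 37°C and 5% CO2, being trypsinized, counted and re-seeded every 5 days, with fresh compound added after each re-seeding. Viability was read by CellTiter-Glo luminescence, and IC50 was derived from a four-parameter logistic fit.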

[1] = test system: ZR-75-1 H3K23 Acetylation; test: Histone H3 acetylation assay (H3K23 acetylation in ZR-75-1 cells); format: cell-based; settings: Homo sapiens, 72 hours incubation, Odyssey CLx fluorescence, read-out: ZR-75-1 H3K23 Acetylation Inhibition IC50
Summary of the method: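 ZR-75-1 cells exposed to serially diluted compounds for 72 h at 37°C, then fixed with 4 w/v% paraformaldehyde, methanol-permeabilized and immunostained for acetyl-H3K23 and total histone H4. Fluorescent secondary antibody signals quantified by imaging; IC50 from four-parameter logistic nonlinear regression.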

[2] = Body weight changes and tolerability in the ZR-75-1 xenograft study; format: in vivo, Mouse; settings: result in words; for body weight changes: differences among the groups, FIG. 1; for tolerability in tumor-bearing mice: human breast cancer ZR-75-1 model
Procedure: • Species: Mouse; • Strain: BALB/c nude mice; • Age and weight: 6-8 weeks old, weighing 19-26 grams; • Gender: Female; • Supplier: GemPharmatech Co., Ltd.; • Compound source: Compound A: [drawing 190] prepared with reference to patent CN114364672A.
A mixture containing 10×10^6 ZR-75-1 cells in 100 µL PBS and 100 µL Matrigel (final volume was 200 µL) was subcutaneously implanted into the right dorsal side (upper side) of each mouse. On day 18 after cell implantation, when the average tumor volume reached 138 mm^3, grouping and administration were initiated. Mice with tumor volumes ranging from 100 to 212 mm^3 were selected for the study. Mice were randomly assigned to groups based on body weight and tumor volume, with 7 mice per group. The day of grouping was designated as PG-D0, and administration for all groups started from PG-D0.
The effects of the test drugs Compound 2, Compound 5-P2, Compound 3, and Compound A on the body weight of the female BALB/c nude mouse model with subcutaneously implanted human breast cancer ZR-75-1 cell xenografts are shown in FIG. 1.

T1 sequence (Q92794 488-778 limits assumed): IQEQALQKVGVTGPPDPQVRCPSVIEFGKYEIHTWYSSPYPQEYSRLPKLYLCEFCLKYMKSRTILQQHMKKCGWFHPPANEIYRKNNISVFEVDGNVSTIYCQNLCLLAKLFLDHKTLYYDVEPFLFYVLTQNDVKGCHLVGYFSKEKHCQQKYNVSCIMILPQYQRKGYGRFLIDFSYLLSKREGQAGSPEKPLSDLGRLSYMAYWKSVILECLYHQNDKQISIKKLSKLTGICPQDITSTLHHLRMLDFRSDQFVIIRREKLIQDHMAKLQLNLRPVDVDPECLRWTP

COc1ccc2c(c1S(=O)(=O)Nc1noc3cc(Cn4cccn4)cc(OC)c13)OC[C@@H]1C[C@H]21 [Compound 5-P2, (1aR,7bS)-N-(6-((1H-Pyrazol-1-yl)methyl)-4-methoxybenzo[d]isoxazol-3-yl)-5-methoxy-1,1a,2,7b-tetrahydrocyclopropa[c]chromene-4-sulfonamide]
IC50 (KAT6A): 1.1 nM | IC50 (ZR-75-1 cells): 0.1 nM | IC50 [1]: 0.5 nM | body weight changes [2]: not significant | tolerability in tumor-bearing mice [2]: tolerated

COc1ccc2c(c1S(=O)(=O)Nc1noc3cc(Cn4cccn4)cc(OC)c13)OCCCO2 [Compound 2, N-(6-((1H-Pyrazol-1-yl)methyl)-4-methoxybenzo[d]isoxazol-3-yl)-7-methoxy-3,4-dihyd ro-2H-benzo[b][1,4]dioxepine-6-sulfonamide]
IC50 (KAT6A): 3.2 nM | IC50 (ZR-75-1 cells): 3.2 nM | IC50 [1]: 5.1 nM | body weight changes [2]: not significant | tolerability in tumor-bearing mice [2]: tolerated
